Each structure is given as a SMILES string.

The source of these data is patent publication US8071645B2, “Systems and methods for treating human inflammatory and proliferative diseases and wounds, with fatty acid metabolism inhibitors and/or glycolytic inhibitors” (The Regents of the University of Colorado, priority 2003, dated 2011).

Assay [1] relates to HL60 MDR tumor. The experiment in a line: HL60 MDR tumor implanted in nude mice, tumor volume. Format: in vivo. The source says: Tumor implantation. Mice were purchased from the Animal Production Program of National Cancer Institute, Frederick, Md. The animals used were Athymic Ncr-nu/nu (strain code 01B74). HL60 MDR cells were harvested and reconstituted at 1 million cells per 100 microliters of phosphate buffered saline. One million tumor cells per injection site were implanted subcutaneously on two sites of the animal's back. Treatments began at exactly seven days post tumor implantation. Tumor size/volume was monitored twice weekly using measurement calipers, with the formula Tumor Volume=π×(short diameter)^2×(long diameter)/6.
Mice experiments with fatty acid metabolism and glycolytic inhibitors. Fatty acid metabolism inhibitors were exemplified by etomoxir at 200 micrograms/day. Glycolytic inhibitors were exemplified by 2-deoxy-D-glucose at 2.5 mM in 100 microliters daily. The combination was administered daily, etomoxir at 200 micrograms and 2-deoxy-D-glucose at 2.5 mM in 100 microliters. All drugs were administered intra-peritoneally. 5-Fluoro-uracil, at 20 mg per kilogram mouse, was injected intra-peritoneally once a week
HL60 MDR human leukemia cells were cultured and implanted in nude mice as described above under “Materials and Methods”. The mice were given 200 ug of Etomoxir, 2.5 mM 2-Deoxy-D-glucose, or both 200 ug of Etomoxir and 2.5 mM 2-Deoxy-D-glucose given daily by IP injection. Treatment began exactly one week after tumor implantation.

In assay [2] the test system is RD cells (rhabdomyosarcoma cells). The experiment in a line: percent death of RD cells by flow cytometry. Format: cell-based. On the procedure:
(§1) Dot plots as a function of live versus dead cells. The cells were cultured at a concentration of 0.5 to 1 million cells per ml. Cells were untreated or treated with etomoxir or 2-deoxy-D-glucose at a concentration of 2.5 mM at the indicated concentrations for either 24 or 48 hours. In additional experiments, under each of these culture conditions, the cells were cultured for 24 hours at which time point, polyclonal anti-UCP-2 was added at a 1:1000 dilution of stock provided by Alpha Diagnostics, San Antonio, Tex. Cells were harvested and analyzed by flow cytometry. Each dot on the dot plots of FIGS. 1, 3, 5, 7, 9, and 11 represents one cell. Five thousand cells were assessed for forward scatter (FS), as a function of cell size, versus side scatter (SS), as a function of cellular granularity. The upper ellipse represents live cells by these criterion and the lower ellipse in each dot plot represents the dead cells.
(§2) Statistical Analysis, Percents, and Geometric Mean Values Percents. Gating is a tool provided by Cell Quest software and allows for the analysis of a certain population of cells. Gating around both the live and dead cell populations gave a percent of the cell numbers that was in each population. After the gates were drawn, a percent value of dead cells was calculated by taking the number of dead cells divided by the number of total cells and multiplying by one hundred.
Referring to FIGS. 29 and 30, RD cells (rhabdomyosarcoma cells—not drug resistant), cultured as described above under “Materials and Methods” were untreated or treated with etomoxir, with 2-deoxy-D-glucose, or with a combination of etomoxir and 2-deoxy-D-glucose, at concentrations indicated in FIG. 29 for 24 hours. Cells were harvested and analyzed by flow cytometry. […] The percent of cell deaths for RD cells after 24 hours was: (a) 31% when untreated, (b) 57% when treated with etomoxir alone, (c) 46% when treated with 2-deoxy-D-glucose alone, and (d) 66% when treated with the combination of etomoxir and 2-deoxy-D-glucose.
Referring to FIGS. 33 and 34, RD cells, cultured as described in Example 22, were untreated or treated with etomoxir, with 2-deoxy-D-glucose, or with a combination of etomoxir and 2-deoxy-D-glucose, at concentrations indicated in FIG. 33 for 48 hours. Cells were harvested and analyzed by flow cytometry. […] The percent of cell deaths for RD cells after 48 hours was: (a) 36% when untreated, (b) 64% when treated with etomoxir alone, (c) 63% when treated with 2-deoxy-D-glucose alone, and (d) 68% when treated with the combination of etomoxir and 2-deoxy-D-glucose.
A general note: In flow cytometry, cells or beads pass a laser one at a time.

The subject of assay [3] is HL60 MDR cells. Description: % death of HL60 MDR cells by flow cytometry. In kind it is cell-based, human. The following applies: for HL60 MDR % Death: Table 1, 25 ug/mL Cerulenin. How it is done: as §1, §2
(§3) This example illustrates an embodiment of the invention, where multi-drug resistant cancer cells were exposed to compositions of the invention. Analysis of the cells was performed using flow cytometry. The flow cytometry experiments were performed as follows. The cells were harvested, counted, and resuspended as described above. For DNA staining, the cells were washed and resuspended in ice-cold PBS and fixed by the dropwise addition of 95% ethanol. The cells were then incubated for 30 minutes on ice, washed, and resuspended in PBS containing 1% formaldehyde and 0.01% Tween. The cells were incubated with 50 units of DNAse and washed with PBS containing 5% DNAse. The cells were then incubated with anti DNA Fab (166, kind gift of Dr. Susan Wallace, University of Vermont), then washed and stained with a fluorescein conjugated second step anti-mouse immunoglobulin. The cells were then washed and resuspended in PBS/3% BSA/1% formaldehyde. The cells were stained for intracellular H2O2 using 6-carboxy-2′,7′-dichlorodihydrofluorescein diacetate (DCF-DA, Molecular Probes, Eugene, Oreg.). The cells were incubated with 1 mM DCF-DA for 20 minutes, washed twice in PBS containing 5% fetal calf serum and analyzed using flow cytometry. The mitochondrial membrane potential was assessed using MitoTracker Red (CM-H2XROS, Molecular Probes, Eugene, Oreg.). The cells were resuspended in warm (37° C.) PBS containing a final concentration of 0.5 micromolar of dye. The cells were then incubated for 30 minutes, pelleted, and resuspended in prewarmed medium for analysis. The data was acquired on a Coulter Elite Epics or Excel flow cytometer (Coulter, Hialeah, Fla.) and analyzed with CellQuest software, (Becton Dickinson, San Jose, Calif.). […] Each sample population was classified for cell size (forward scatter) and complexity (side scatter), gated on a population of interest and evaluated using 40,000 cells. Each figure describing flow cytometric data represents one of at least four replicate experiments.
All cell lines in this example were cultured in RPMI 1640 culture medium. The medium was supplemented with 5% fetal bovine serum (“FBS”), 2 mM L-Glutamine, 500 units/mL pennicillin/500 micrograms/mL of streptomycin, 10 mM HEPES Buffer, 10^−5 M 2-mercaptoethanol (“2-ME”), 1 mM MEM Sodium Pyruvate, and 0.04 micrograms/mL of Gentamicin (All reagents from Gibco BRL). The cells were maintained at 37° C. in a humidified atmosphere under 5% CO2 in air using standard cell culture techniques known to those of ordinary skill in the art. […]

For assay [4], the system named is HL60 cells. Description: % death of HL60 cells by flow cytometry. In kind it is cell-based, human. The following applies: Table 1, 25 ug/mL Cerulenin. How it is done:
as §2
(§4) This example illustrates an embodiment of the invention, where multi-drug resistant cancer cells were exposed to compositions of the invention. Analysis of the cells was performed using flow cytometry. The flow cytometry experiments were performed as follows. The cells were harvested, counted, and resuspended as described above. […] The cells were incubated with 1 mM DCF-DA for 20 minutes, washed twice in PBS containing 5% fetal calf serum and analyzed using flow cytometry. The mitochondrial membrane potential was assessed using MitoTracker Red (CM-H2XROS, Molecular Probes, Eugene, Oreg.). […] The data was acquired on a Coulter Elite Epics or Excel flow cytometer (Coulter, Hialeah, Fla.) and analyzed with CellQuest software, (Becton Dickinson, San Jose, Calif.). […] Each sample population was classified for cell size (forward scatter) and complexity (side scatter), gated on a population of interest and evaluated using 40,000 cells. […]

Assay [5] has as its system L1210 DDP cells. The experiment in a line: % death of L1210 DDP cells by flow cytometry. Format: cell-based. The following applies: for L1210 DDP % Death: Table 2, 25 ug/mL Cerulenin. On the procedure:
as §2
as §4, with “above. For DNA staining, the cells were washed and resuspended in ice-cold PBS and fixed by the dropwise addition of 95% ethanol. The cells were then incubated for 30 minutes on ice, washed, and resuspended in PBS containing 1% formaldehyde and 0.01% Tween. The cells were incubated with 50 units of DNAse and washed with PBS containing 5% DNAse.” for “above.”
The flow cytometry experiments were performed as follows. Once the samples were prepared and transferred into flow cytometric tubes, the samples were analyzed on a Becton/Dickinson Flow Cytometer. […] Statistical analysis, percents, and geometric mean values percents were calculated as described above.

Assay [6] has as its system HL60 MDR cells. The experiment in a line: microscopy images of HL60 MDR cells treated with cerulenin. In kind it is cell-based, human. The note with it: FIGS. 4E and 4F. The source says: (§5) In FIG. 4, microscopy images of HL60 and HL60 MDR (“multi-drug resistant”) cells treated with cerulenin (“Treated”) and not treated with cerulenin (“No Stn”) are shown.
In assay [7] the test system is L1210 cells. The experiment in a line: % death of L1210 cells by flow cytometry. The note with it: Table 2; 25 ug/mL Cerulenin; 7.0 Hours. Format: cell-based. On the procedure:
as §2, §4

Assay [8] relates to B16F1 melanoma cells. Description: % death of B16F1 cells by flow cytometry. Format: cell-based. How it is done:
as §2, §3
All cell lines in this example were cultured in RPMI 1640 culture medium. The medium was supplemented with 5% fetal bovine serum (“FBS”), 2 mM L-Glutamine, 500 units/mL pennicillin/500 micrograms/mL of streptomycin, 10 mM HEPES Buffer, 10^−5 M 2-mercaptoethanol (“2-ME”), 1 mM MEM Sodium Pyruvate, and 0.04 micrograms/mL of Gentamicin (All reagents from Gibco BRL). The cells were maintained at 37° C. in a humidified atmosphere under 5% CO2 in air using standard cell culture techniques known to those of ordinary skill in the art.
The flow cytometry experiments were performed as follows. Once the samples were prepared and transferred into flow cytometric tubes, the samples were analyzed on a Becton/Dickinson Flow Cytometer. For antibodies that were PE conjugated and for the MitoTracker Red experiments, a program for red-colored fluorochromes was utilized. […] Statistical analysis, percents, and geometric mean values percents were calculated as described above.

For assay [9], the system named is HL60 cells. Description: microscopy images of HL60 cells treated with cerulenin. Format: cell-based, human. The following applies: FIG. 4C.
Description: as §5

Assay [10] has as its system B16F1 melanoma cells. Description: B16F1 melanoma cells exposed to cerulenin, then injected into male mice. In kind it is in vivo. How it is done:
Highly carcinogenic B16F1 melanoma cells were either exposed (“treated”) or not exposed to cerulenin, then injected into male mice.
Day 0 @2:45 pm injected with B16F1 10^6 cells in PBS, Treatment w/25 ug/ml cerulenin 5.0 hrs
Day 0 injected w/B16F1 10^6 cells in PBS, Treatment w/25 ug/ml cerulenin 5.0 h
Day 0 @2:45 pm injected w/B16F1 (10^6 cells in PBS) Treatment w/25 ug/ml cerulenin 5 h

Consider `O=CC[C@@H](O)[C@H](O)[C@H](O)CO` [2-deoxy-D-glucose], for which, in assay [1] (21 day period, single agent), the “tumor growth versus control” value is listed as “increase in tumor growth”. Further, the “tumor volume, Day 7” value in assay [1] (Day 7 after implantation (start of treatment), 200 ug Etomoxir and/or 2.5 mM 2-Deoxy-D-glucose daily IP) amounted to 35 mm^3. Moreover, the “tumor volume, Day 9” value in assay [1] (Day 9, 200 ug Etomoxir and/or 2.5 mM 2-Deoxy-D-glucose daily IP) stood at 51.56 mm^3. Besides, the “tumor volume, Day 15” value in assay [1] (Day 15, 200 ug Etomoxir and/or 2.5 mM 2-Deoxy-D-glucose daily IP) came out at 158.55 mm^3. For the same molecule, in assay [1] (Day 21, 200 ug Etomoxir and/or 2.5 mM 2-Deoxy-D-glucose daily IP), the “tumor volume, Day 21” value was 1,181.61 mm^3. For the same molecule, the “percent of cell deaths” value in assay [2] (24 hours, concentrations as in FIG. 29) is 46%; in assay [2] (48 hours, concentrations as in FIG. 33), 63%; in assay [3] (HL60 MDR, 24 hours, 2-deoxy-D-glucose at 2.5 mM, etomoxir as in FIG. 27), 16%; in assay [3] (HL60 MDR, 48 hours, concentrations as in FIG. 31), 38%.
Consider `C/C=C/C/C=C/CCC(=O)[C@H]1O[C@H]1C(N)=O` [Cerulenin, cerulenin], for which the “HL60 % Death” value stood at 11% in assay [4] (2.0 Hours) and 44% in [4] (24 Hours). For the same molecule, the “cell death compared to control and non-multidrug resistant cancer cells” value in assay [5] (L1210 DDP, after treatment with cerulenin) is listed as “greater amounts of cell death”; in assay [3] (HL60 MDR, after treatment with cerulenin), “greater amounts of cell death”. The “L1210 DDP % Death” value was found to be 14% in assay [5] (7.0 Hours) and 92% in assay [5] (24 Hours). The “cell death seen in microscopy images” value in assay [6] is recorded as “large numbers of cell death”. Moreover, in assay [7], the “L1210 % Death” value is on record as 27%. The “B16F1 % Death” value came out at 61% in assay [8] (Table 1; 25 ug/mL Cerulenin; 5.0 Hours); 90% in assay [8] (Table 1; 25 ug/mL Cerulenin; 24 Hours); 67% in assay [8] (Table 2; 25 ug/mL Cerulenin; 5.0 Hours); 72% in assay [8] (Table 2; 25 ug/mL Cerulenin; 24 Hours); 89% in [8] (Table 2; 24 Hours; 25 ug/mL Cerulenin). Also, in assay [9], the “cell survival seen in microscopy images” value is listed as “large numbers of the cells survived”. The “development of lethal cancers” value in assay [10] (male mice injected with B16F1 cells treated with 25 ug/ml cerulenin 5.0 hrs) was “did not develop lethal cancers”. The “tumor observation, Day 9” value in assay [10] (single mice (#7, #8, #9), 10^6 B16F1 cells treated w/25 ug/ml cerulenin 5.0 hrs, Day 9) was “no visible sign of tumors”. Besides, in assay [10] (single mice (#7, #8, #9), 10^6 B16F1 cells treated w/25 ug/ml cerulenin 5.0 hrs, Day 12), the “tumor observation, Day 12” value was “no visible tumors”. Moreover, the “tumor observation, Day 13” value in assay [10] (single mice (#7, #8, #9), 10^6 B16F1 cells treated w/25 ug/ml cerulenin 5.0 hrs, Day 13) is on record as “no visible tumors”. The “HL60 MDR % Death” value in assay [3] (2.0 Hours) is on record as 13%; in [3] (24 Hours), 99.6%.
